Results from patent US20170157135A1 (Novogen Limited, priority 2013, published 2017).

Tests used:
Type in all cases: cell-based
SK-Mel-28 melanoma cells = experiment: Anti-proliferative assay (cell-titre luminescent), SK-Mel-28; settings: Homo sapiens; SK-Mel-28, 72 hours, luminescence
Protocol: (§1) The ability of compounds 2002, 2009 and 2013-2064 to inhibit the proliferation of cancer cells representative of neuroblastoma, melanoma, prostate cancer, colorectal cancer, non-small cell lung carcinoma, and triple negative breast cancer was assessed. These studies were conducted by contract research (GVK-BIO). Briefly, a pre-determined number of cells as calculated from cell growth assays for each of the cell lines employed were seeded into their respective culture medium (using ATCC culture parameters—http://www.atcc.org) and cultured for 24 h at 37° C. and 5% CO2 in 96-well culture plates. Once attached, each cell line was then exposed to various concentrations of each respective analogue (30, 10, 3, 1, 0.3 and 0.1 μM), cultured for a further 72 hours and exposed to cell-titre luminescent reagent (100 μL/well) for a further 30 minutes). Luminescence was captured using an EnVision multilabel reader and the data for each analogue concentration compared against no treatment control. Cell viability was normalized to control (vehicle alone) and dose-response curves, and half maximal effective concentration (EC50) values were determined using Graph Pad Prism 6 (nonlinear regression sigmoidal dose-response variable slope).

[1] = system: SK-N-SH neuroblastoma cells; experiment: Anti-proliferative assay (cell-titre luminescent), SK-N-SH; settings: Homo sapiens, 72 hours, luminescence
Protocol: as §1

A549 lung (NSLC) cells = experiment: Anti-proliferative assay (cell-titre luminescent), A549; settings: Homo sapiens; A549, 72 hours, luminescence
Protocol: as §1

[2] = system: DU145 prostate cancer cells; experiment: Anti-proliferative assay (cell-titre luminescent), DU145; settings: Homo sapiens, DU-145; DU145, 72 hours, luminescence
Protocol: as §1

[3] = system: CaCo2 colorectal cancer cells; experiment: Anti-proliferative assay (cell-titre luminescent), CaCo2; settings: Homo sapiens, Caco-2; CaCo2, 72 hours, luminescence
Protocol: as §1

[4] = system: MDA-MB-231 breast cancer cells; experiment: Anti-proliferative assay (cell-titre luminescent), MDA-MB-231; settings: Homo sapiens; MDA-MB-231, 72 hours, luminescence
Protocol: as §1

[5] = system: PC3 prostate cancer cells; experiment: Anti-proliferative assay (cell-titre luminescent), PC3; settings: PC3, 72 hours, luminescence
Protocol: as §1

SMILES | IC50 (SK-Mel-28 melanoma cells) [µM] | IC50 [1] [µM] | IC50 (A549 lung (NSLC) cells) [µM] | IC50 [2] [µM] | IC50 [3] [µM] | IC50 [4] [µM] | IC50 [5] [µM]
CCOc1ccc2c(c1)c(C(=O)N1CCN(CCc3ccc(F)cc3)CC1)c(C)n2CCCN1CCN(C)CC1 [Compound 2064, (5-ethoxy-2-methyl-1-(3-(4-methylpiperazin-1-yl)propyl)-1H-indol-3-yl)(4-(4-fluorophenethyl)piperazin-1-yl)methanone] | 3.5 | 4.3 | 7.8 | 14 | 29.1 | 5.8 | 6.9
COc1cccc(CCN2CCN(C(=O)/C=C/c3c(C)n(CCCN(C)C)c4ccc(OC)cc34)CC2)c1 [Compound 2022, (E)-3-(1-(3-(dimethylamino)propyl)-5-methoxy-2-methyl-1H-indol-3-yl)-1-(4-(3-methoxyphenethyl)piperazin-1-yl)prop-2-en-1-one] | 17.2 | 12.5 | 12.7 | 22 | 21.5 | 11.3 | 7.6
COc1cccc(CCN2CCN(C(=O)c3c(C)n(CCCN4CCN(C)CC4)c4ccc(OC)cc34)CC2)c1 [Compound 2060, (5-methoxy-2-methyl-1-(3-(4-methylpiperazin-1-yl)propyl)-1H-indol-3-yl)(4-(3-methoxyphenethyl)piperazin-1-yl)methanone] | 7.5 | 10.8 | > 30 | > 30 | > 30 | 6.1 | > 30
CCN(CC)CCCn1c(C)c(C(=O)N2CCN(CCc3ccc(OC)cc3)CC2)c2cc(OC)ccc21 [Compound 2051, (1-(3-(diethylamino)propyl)-5-methoxy-2-methyl-1H-indol-3-yl)(4-(4-methoxyphenethyl)piperazin-1-yl)methanone] | 6 | 10.9 | > 30 | > 30 | > 30 | 10.3 | > 30
Cc1c(C(=O)N2CCN(CCc3ccccc3)CC2)c2ccccc2n1CCCN(C)C [Compound 2043, (1-(3-(dimethylamino)propyl)-2-methyl-1H-indol-3-yl)(4-phenethylpiperazin-1-yl)methanone] | 17.2 | 17.4 | > 30 | > 30 | > 30 | > 30 | > 30
COc1ccc(CCN2CCN(C(=O)/C=C/c3c(C)n(CCCN(C)C)c4ccccc34)CC2)cc1 [Compound 2013, (E)-3-(1-(3-(dimethylamino)propyl)-2-methyl-1H-indol-3-yl)-1-(4-(4-methoxyphenethyl)piperazin-1-yl)prop-2-en-1-one] | 3.8 | 3.2 | 6.1 | 10 | 9.1 | 6.8 | 4.8
COc1ccc2c(c1)c(/C=C/C(=O)N1CCN(CCc3ccccc3)CC1)c(C)n2CCCN1CCN(C)CC1 [Compound 2034, (E)-3-(5-methoxy-2-methyl-1-(3-(4-methylpiperazin-1-yl)propyl)-1H-indol-3-yl)-1-(4-phenethylpiperazin-1-yl)prop-2-en-1-one] | 16.2 | 10.8 | 51.3 | 17.2 | 8.1 | 13.7 | 11.5
CCN(CC)CCCn1c(C)c(C(=O)N2CCN(CCc3cccc(F)c3)CC2)c2cc(OC)ccc21 [Compound 2053, (1-(3-(diethylamino)propyl)-5-methoxy-2-methyl-1H-indol-3-yl)(4-(3-fluorophenethyl)piperazin-1-yl)methanone] | 4.7 | 4.8 | 13.5 | 13.6 | 12.2 | 12.6 | 11
CCOc1ccc2c(c1)c(/C=C/C(=O)N1CCN(CCc3ccc(F)cc3)CC1)c(C)n2CCCN(C)C [Compound 2035, (E)-3-(1-(3-(dimethylamino)propyl)-5-ethoxy-2-methyl-1H-indol-3-yl)-1-(4-(4-fluorophenethyl)piperazin-1-yl)prop-2-en-1-one] | 3.2 | 3.3 | 8.3 | 6.2 | 5.1 | 3 | 5.6
CCN(CC)CCCn1c(C)c(C(=O)N2CCN(CCc3ccccc3)CC2)c2cc(OC)ccc21 [Compound 2055, (1-(3-(diethylamino)propyl)-5-methoxy-2-methyl-1H-indol-3-yl)(4-phenethylpiperazin-1-yl)methanone] | 1.1 | > 30 | > 30 | > 30 | > 30 | > 30 | > 30
